Measured values as given in patent publication US20220040335A1, “RADIOLABELED PABA AND DERIVATIVES THEREOF FOR USE AS FUNCTIONAL RENAL IMAGING AGENTS” (priority 2018, published 2022).
Entries after “also recorded” stand apart in the source; their conditions may differ.

Test: Dynamic PET/CT renal imaging (renogram) after intravenous injection in healthy rats
Format: in vivo, Wistar rats
Procedure: Methods for renal imaging: ^11C-PABA was synthesized using cGMP conditions at the JHU PET Center. Four female healthy Wistar rats (250-275 g of bodyweight) were injected with 30.5±10.3 MBq of ^11C-PABA through a tail-vein catheter and a dynamic PET scan was performed (15 frames×20 seconds, 5 frames×1 minute, 10 frames×5 minutes, total of 60 minutes) using the nanoScan PET/CT (Mediso). Subsequently, CT imaging was performed for anatomical co-registration. As a control, the same rats were also injected intravenously with 18.5 MBq of ^99mTc-MAG3 (Cardinal Health) and scanned using planar scintigraphy with the nanoSPECT/CT (Nanoscan). The images were analyzed with VivoQuant 3.0 (Invicro) and regions of interest were drawn using the CT as reference.

[1] = representative healthy rat, FIG. 3

Nc1ccc([11C](=O)O)cc1 [^11C-PABA, [Carboxy-11C] 4-Aminobenzoic acid]
time after injection at which PET/CT signal localized in the right kidney (FIG. 4A): 220 to 240 s | signal in the kidneys compared to liver and spleen (at time-to-peak, healthy rats, FIG. 3): 30-40 × | renal clearance / excretion from kidneys (in words) (dynamic PET after IV injection, healthy rats, FIG. 2): rapid excretion; also recorded: rapid renal clearance; also recorded: rapidly localized in the kidneys | background accumulation of the tracer in other organs (in words) (dynamic PET, healthy rats): very low background accumulation | time-to-peak in time-activity curves (kidneys, dynamic PET after IV injection of 30.5±10.3 MBq, healthy female Wistar rats): 9.5 ± 1.4 min | cortical phase of renogram [1]: 4.7 to 10 min | vascular phase of renogram [1]: 0 to 4.7 min
